Measured values reported in patent US20020091086A1, “Peptides that block viral infectivity and methods of use thereof” (priority 1999, published 2002).
Several values for one entry are separate records, joined by “and”; a condition that tells them apart may be missing. Identical values can stand only once. Peptide text beside a SMILES is read from it.

Experiments:
[1] = tested on: SF162 strain of HIV-1; experiment: antiviral activity of plasma of rats fed GPG-NH2 on infected PBMC, p24; assay type: cell-based; settings: rat plasma diluted 1/5
Method: For the assessment of biologically active GPG-NH2 in the plasma of animals fed the small peptide, plasma samples were prepared from blood obtained from the rats of the four week toxicology study the day after the last feeding. The plasma samples were diluted ⅕ in RPMI medium and were adminstered to PBMC infected with the SF162 strain of HIV-1, as described above. Viral infectivity was then monitored at seven, eleven, and fourteen days post infection by detecting the amount of p24 in the supernatent using a commercially available detection assay. (Abbott). […] In some cases, the administration of as little as 10 μM GPG-NH2 provided a sufficient concentration of small peptide in the plasma to enable the inhibition of HIV-1 replication. The percent reduction was calculated as in Table 6. The results from these experiments established that small peptides described herein can be maintained at concentrations in the body of an animal that are effective at inhibiting HIV replication.

[2] = in vivo uptake, distribution and elimination of 14C GPG-NH2 in rats
Method: Further, the in vivo uptake of small peptides was analyzed in rats. Rats were fed ^14C GPG-NH2 and, after various time points, blood, urine, and tissue samples were collected from the animals. Samples of rat urine taken eight hours after feeding and rat plasma taken 30 minutes, two hours, and eight hours after feeding were separated on a TLC plate, as shown in FIG. 7 (designated urine8, rp0.5, rp2, and rp^8, accordingly). All the tissues were kept in −20° C. after necropsy before any assay was performed. […] of the tissue samples were collected from three different locations of each organ analyzed and the organ tissue was subsequently dissolved in 250 μl of tissue solublizer (OptiSolv, LKB-Wallac) at 45° C. for four to six hours. The homogenized tissue solutions were decolorized by the addition of 50 μl of 30% H2O2 and 100 μl of isopropanol before 3 ml of 0.05M HCl acidified scintillation cocktail (Luma Gel, Lumac/3M) was added. The radioactivity was determined with a beta scintillation counter (LKB-Wallac 1218 Rack Beta). The free/unbound GPG-NH2 in the plasma was collected by precipitation with one part of plasma and two parts of ethanol followed by incubation at −70° C. for one hour and centrifugation at 20,000×g for 15 min at 4° C. Blood cell samples were diluted with PBS (in the ratio of 2 parts of blood cells to 1 part of PBS) before 10 μl of the mixture was sampled and analyzed as the tissue samples. Five to 20 μl of plasma and urine samples were directly mixed with 3 ml of Ready Safe (Beckman) fluid before quantification. The values are expressed in nCi.
The calculation of the maximum uptake was determined as follows. The total feeding was 800 μCi/kg rat body weight (160 μCi in total per animal). On the assumption that the GPG-NH2 and its metabolities were evenly distributed in the body, the GPG-NH2 present in tissues would be the average counts/g from different tissues from the total number of animals studied divided by the total number of animals and multiplied by the body weight and the factor 0.9. This factor is derived to omit the blood volume since an estimate of blood volume is roughly 10% of the average body weight. For example (from the data of animals 1-5), if the total body weight for five rats was […] and the radioactivity detected from various tissues was (35+466+495+366+331) or 1,693 nCi and the radioactivity detected from blood was (93+130) or 223 nCi and the radioactivity detected in urine was 4, 015 nCi, the maximal intake of the small peptide can be calculated as: […]
In FIG. 9, the distribution of radioactivity between blood cells, plasma protein bound, as well as, non protein bound (free) plasma radioactivity is shown. The elimination of radioactivity from the plasma fraction is depicted in FIG. 10. […] Protein bound radioactivity was assayed after precipitation with two parts of 99.5% ethanol. From the uptake and distribution data and the TLC data above, the minimal uptake of intact GPG-NH2 recovered from the plasma was calculated and, in one hour after feeding of the rats, at least 1% of fed GPG-NH2 could be recovered as protein free GPG-NH2 in the plasma.

[3] = Exp. 1, day 7, Feeding GPG 10 (mg/ml)
[4] = Exp. 1, day 7, Feeding GPG 30 (mg/ml)
[5] = Exp. 1, day 7, Feeding GPG 100 (mg/ml)
[6] = Exp. 1, day 14, Feeding GPG 10 (mg/ml)
[7] = Exp. 1, day 14, Feeding GPG 30 (mg/ml)
[8] = Exp. 1, day 14, Feeding GPG 100 (mg/ml)
[9] = Exp. 2, day 7, Feeding GPG 10 (mg/ml)
[10] = Exp. 2, day 7, Feeding GPG 30 (mg/ml)
[11] = Exp. 2, day 7, Feeding GPG 100 (mg/ml)
[12] = Exp. 2, day 14, Feeding GPG 10 (mg/ml)
[13] = Exp. 2, day 14, Feeding GPG 30 (mg/ml)
[14] = Exp. 2, day 14, Feeding GPG 100 (mg/ml)
[15] = Exp. 3, day 14, Feeding GPG 10 (mg/ml)
[16] = Exp. 3, day 14, Feeding GPG 30 (mg/ml)
[17] = Exp. 3, day 14, Feeding GPG 100 (mg/ml)
[18] = Exp. 3, day (number not given), Feeding GPG 10 (mg/ml)
[19] = Exp. 3, day (number not given), Feeding GPG 30 (mg/ml)
[20] = Exp. 3, day (number not given), Feeding GPG 100 (mg/ml)
[21] = Exp. 4, day 11, Feeding GPG 10 (mg/ml)
[22] = Exp. 4, day 11, Feeding GPG 30 (mg/ml)
[23] = Exp. 4, day 11, Feeding GPG 100 (mg/ml)
[24] = Exp. 5, day 7, Feeding GPG 10 (mg/ml)
[25] = Exp. 5, day 7, Feeding GPG 30 (mg/ml)
[26] = Exp. 5, day 7, Feeding GPG 100 (mg/ml)
[27] = rats fed 14C GPG-NH2 800 μCi/kg, sacrificed after 4 hours, avg of animals 1-5
[28] = rats fed 14C GPG-NH2 800 μCi/kg, sacrificed after 8 hours, avg of animals 6-10
[29] = rats fed 14C GPG-NH2 800 μCi/kg, sacrificed after 8 hours, individual animals 6-10

## NCC(=O)N1CCC[C@H]1C(=O)NCC(N)=O [GPG-NH2, glycyl-prolyl-glycine amide] (H-Gly-Pro-Gly-NH2)
[1]; [3]
  % reduction: 82.8%
  p24: 93.3 pg/mL
[1]; [4]
  % reduction: 95.6%
  p24: 24.0 pg/mL
[1]; [5]
  % reduction: 67.8%
  p24: 174.7 pg/mL
[1]; [6]
  % reduction: 92.8%
  p24: 1636 pg/mL
[1]; [7]
  % reduction: 95.9%
  p24: 938 pg/mL
[1]; [8]
  % reduction: 59.4%
  p24: 9211 pg/mL
[1]; [9]
  % reduction: 31.9%
  p24: 219.2 pg/mL
[1]; [10]
  % reduction: 39.6%
  p24: 194.3 pg/mL
[1]; [11]
  % reduction: 46.1%
  p24: 173.5 pg/mL
[1]; [12]
  % reduction: 0%
  p24: 4760.8 pg/mL
[1]; [13]
  % reduction: 12.3%
  p24: 3574.4 pg/mL
[1]; [14]
  % reduction: 45.9%
  p24: 2203.7 pg/mL
[1]; [15]
  % reduction: 11.6%
  p24: 6700.6 pg/mL
[1]; [16]
  % reduction: 9.1%
  p24: 6893.0 pg/mL
[1]; [17]
  % reduction: 0%
  p24: 7578.4 pg/mL
[1]; [18]
  % reduction: 0%
  p24: 255.6 pg/mL
[1]; [19]
  % reduction: 41.7%
  p24: 107.3 pg/mL
[1]; [20]
  % reduction: 47.3%
  p24: 96.9 pg/mL
[1]; [21]
  % reduction: 29.8%
  p24: 170 pg/mL
[1]; [22]
  % reduction: 0%
  p24: 487.4 pg/mL
[1]; [23]
  % reduction: 78.6%
  p24: 51.7 pg/mL
[1]; [24]
  % reduction: 73.9%
  p24: 79.6 pg/mL
[1]; [25]
  % reduction: 0%
  p24: 439.3 pg/mL
[1]; [26]
  % reduction: 80.3%
  p24: 60 pg/mL
[2]; animals 1-5, 4 hours
  radioactivity in urine (used for uptake calculation): 4,015 nCi
[2]; animals 1-5, 4 hours, body weight 207 g, factor 0.1
  radioactivity present in blood (calculated): blood (93 + 130) * 207 * 0.1 = 4,642 nCi
[2]; animals 1-5, 4 hours, body weight 207 g, factor 0.9
  radioactivity present in tissue (whole body, calculated): (35 + 466 + 495 + 366 + 331)/5 * 207 * 0.9 = 63,240 nCi
[2]; between hours 4 and 8
  change of radioactivity in the urine: double
[2]; electrospray mass spectrometry of TLC spot
  portion of urine radioactivity that was intact GPG-NH2: only a small portion
[2]; one hour after feeding of the rats
  fed GPG-NH2 recovered as protein free GPG-NH2 in the plasma: at least 1%
[2]; oral feeding 800 μCi/kg, animals 1-5, 4 hours
  maximal uptake: (63.24 + 4.642 + 4.015)/800 * 0.207 = 0.4342, or 43% maximal
[2]; [27]
  radioactivity in Blood cells, avg: 93 nCi/ml or g tissue
  radioactivity in Brain, avg: 35 nCi/ml or g tissue
  radioactivity in Kidneys, avg: 466 nCi/ml or g tissue
  radioactivity in Liver, avg: 495 nCi/ml or g tissue
  radioactivity in Plasma, avg: 130 nCi/ml or g tissue
  radioactivity in Spleen, avg: 366 nCi/ml or g tissue
  radioactivity in Thymus, avg: 331 nCi/ml or g tissue
  radioactivity in Total urine, avg: 4,015 nCi/ml or g tissue
  radioactivity in Urine, avg: 5,660 nCi/ml or g tissue
[2]; [28]
  radioactivity in Blood cells, avg: 78 nCi
  radioactivity in Brain, avg: 30 nCi
  radioactivity in Kidneys, avg: 415 nCi
  radioactivity in Liver, avg: 494 nCi
  radioactivity in Plasma, avg: 135 nCi
  radioactivity in Spleen, avg: 293 nCi
  radioactivity in Thymus, avg: 334 nCi
  radioactivity in Total urine, avg: 8,426 nCi
  radioactivity in Urine, avg: 3,525 nCi
[2]; [29]
  radioactivity in Blood cells: 51 nCi and 72 nCi and 87 nCi and 71 nCi and 108 nCi
  radioactivity in Brain: 43 nCi and 27 nCi and 28 nCi and 25 nCi and 29 nCi
  radioactivity in Kidneys: 255 nCi and 488 nCi and 461 nCi and 401 nCi and 468 nCi
  radioactivity in Liver: 537 nCi and 419 nCi and 478 nCi and 458 nCi and 578 nCi
  radioactivity in Plasma: 138 nCi and 123 nCi and 135 nCi and 129 nCi and 148 nCi
  radioactivity in Spleen: 307 nCi and 281 nCi and 257 nCi and 336 nCi and 285 nCi
  radioactivity in Thymus: 340 nCi and 350 nCi and 323 nCi and 349 nCi and 311 nCi
  radioactivity in Total urine: 6,463 nCi and 6,653 nCi and 11,173 nCi and 10,227 nCi and 7,613 nCi
  radioactivity in Urine: 2,992 nCi and 5,040 nCi and 3,121 nCi and 4,297 nCi and 2,175 nCi
[2]; rats, oral
  relative distribution of retained/immobilized GPG-NH2 and its metabolites in sampled tissues: highest in the liver followed by the kidney, followed by the spleen, followed by the thymus, followed by the brain
